Columns and labels:
[1] = tested on: LX2 cells; assay: qRT-PCR of Col1A1, PHGDH, PSAT1, SHMT1, SHMT2 mRNA in LX2 cells after TGFβ; format: cell-based; settings: following TGFβ treatment, vs DMSO, qRT-PCR fold change
Experimental: Cellular levels of mRNA of collagen (Col1A1), PHGDH, PSAT1, SHMT1, and SHMT2 in LX2 cells with DASA-10 (black bar) or DMSO (open bar) treatment following TGFβ treatment were analyzed by qRT-PCR. The cellular mRNA levels are presented as fold change by comparing controls. Error bars represent mean±S.E.M.

[2] = tested on: LX2 cells; assay: LOX and LOXL2 expression in LX2 cells under hypoxia (immunoblot, qPCR); format: cell-based; settings: 10 μM, hypoxia 24 hours, vs DMSO
Experimental: (§1) Section (B) Relative band intensities were calculated for both LOX and LOXL2 using ImageJ.

[3] = tested on: NLF cells; assay: LOX and LOXL2 expression in NLF cells under hypoxia (immunoblot, qPCR); format: cell-based; settings: 10 μM, hypoxia 24 hours, vs DMSO
Experimental: as §1

[4] = tested on: TAA/alcohol liver fibrosis; assay: TAA/alcohol liver fibrosis induction in mice with subsequent treatment; format: in vivo
Experimental: (§2) Sections (A) & (E) of FIG. 1 are schematic illustrations of the schedule of TAA/alcohol liver fibrosis (A) and bleomycin lung fibrosis (E) induction and subsequent TEPP-46 treatments. […] Sections (C) & (D) of FIG. 1 show quantitation of collagen levels in Sirius red (B) and Masson's trichrome (F) staining and a-SMA IF (B) and IHC (F) staining of fibrotic liver (B) and lung (F) using ImageJ software. Quantification was calculated from measurements of 10 mice. Four randomly selected tissue sections per animal and three randomly selected view fields in each section were quantified. The quantity of collagen levels in Sirius red or Masson's trichrome stain and α-SMA IF or IHC stain is presented as % of total area. […] Sections (G) & (H) show Quantitative analyses of Serine (G) and Glycine (H) levels in tissue extracts of liver and lung from mice treated with indicated agents by HPLC-ms. Serine and glycine levels are presented as relative abundance by defining the vehicle treated group as 100%. Error bars in Sections C, D, G, H represent mean±S.E.M

[5] = tested on: bleomycin lung fibrosis; assay: Bleomycin lung fibrosis induction in mice with subsequent treatment; format: in vivo
Experimental: as §2

[6] = tested on: cerulein pancreatitis; assay: Cerulein pancreatitis induction in mice with subsequent treatment; format: in vivo; settings: cerulein-induced, vs vehicle
Experimental: Section (A) is schematic illustration of the schedule of cerulein (red arrows) pancreatitis induction and subsequent TEPP-46 treatments (green arrows). […] Quantification was calculated from measurements of 6 mice. Four randomly selected tissue sections per animal and three randomly selected view fields in each section were quantified. The quantity of collagen levels in Sirius red stain is presented as % of total area.

[7] = tested on: myocardial infarction (MI); assay: Myocardial infarction by left ventricle ligation, cardiac fibrosis; format: in vivo; settings: C57BL/6J mice, LV ligation 70 minutes, i.p. injection, vs vehicle
Experimental: C57BL/6J mice (n=6/group) were induced myocardial infarction (MI) by left ventricle ligation (LV). Sham are the mice underwent the same surgical procedure without LV. After 70 minutes, the LV was relieved. All mice were immediately treated with TEPP-46 or vehicle by i.p. injection. No treatment for the Sham mice. […] Scale bars, […]. […] The quantification is a mean value of randomly selected 4 fields from each section. Four sections were randomly selected from each mouse. The quantification is presented as blue staining Collagen Area (%). Error bars represent mean±S.E.M. * P<0.05, ** P<0.01, *** P<0.001, by unpaired two-tailed Student's t-test.

SMILES	metabolic enzymes involved in serine/glycine metabolism (mRNA of Col1A1, PHGDH, PSAT1, SHMT1, SHMT2) [1]	LOX and LOXL2 expression [2]	LOX and LOXL2 expression [3]	liver fibrosis (collagen by Sirius red, α-SMA IF staining, % of total area) ([4]; TAA/alcohol liver fibrosis, mice, vs vehicle)	LOX expression in vivo (IHC LOX positive area, LOX activity) ([4]; fibrotic liver, TAA/alcohol model)	serine/glycine metabolism (serine and glycine levels in tissue extracts by HPLC-ms) ([4]; fibrotic liver, relative abundance, vehicle group = 100%)	lung fibrosis (collagen by Masson's trichrome, α-SMA IHC staining, % of total area) ([5]; bleomycin lung fibrosis, mice, vs vehicle)	serine/glycine metabolism (serine and glycine levels in tissue extracts by HPLC-ms) ([5]; fibrotic lung, relative abundance, vehicle group = 100%)	LOX expression in vivo (IHC LOX positive area, LOX activity) ([5]; fibrotic lungs, bleomycin model)	pancreatitis (collagen in Sirius red staining, H&E of pancreas) [6]	cardiac fibrosis after infarction (trichrome Collagen Area %) [7]
O=S(=O)(c1ccc2c(c1)OCCO2)N1CCN(S(=O)(=O)c2c(F)cccc2F)CC1 [DASA-10]	decreases metabolic enzymes that are involved in serine/glycine metabolism	reduces LOX and LOXL2 expression	reduces LOX and LOXL2 expression								
Cn1c2cc([S+](C)[O-])sc2c2cnn(Cc3cccc(N)c3)c(=O)c21 (centres unmarked) [TEPP-46]				reverses liver and lung fibrosis	reduces LOX expression in vivo	decreases serine/glycine metabolism	reverses liver and lung fibrosis	decreases serine/glycine metabolism	reduces LOX expression in vivo	reverse pancreatitis	decreases cardiac fibrosis after infarction

Reference: patent US20250387390A1, “METHODS FOR TREATING FIBROSIS USING PKM2 ACTIVATORS” (Proda Biotech L.L.C., priority 2020, published 2025)
